Test results published in patent US9249129B2, “Morpholino substituted urea derivatives as mTOR inhibitors” (CELLZOME LIMITED, priority 2010, dated 2016).
pIC50: −log10 of the molar value. Read-outs that look alike come from different tables or passages of the source.

Columns and labels:
PI3K delta (PI3Kd) = target: T1, PI3K delta (PI3Kd) (Homo sapiens, UniProt O00329); test: kinobeads assay, PI3K delta (dot blot detection); type: binding
T1 construct: endogenous in cells; host or cells: Jurkat cells (ATCC TIB-152, clone E6-1), lysate
T1 sequence (O00329 whole entry): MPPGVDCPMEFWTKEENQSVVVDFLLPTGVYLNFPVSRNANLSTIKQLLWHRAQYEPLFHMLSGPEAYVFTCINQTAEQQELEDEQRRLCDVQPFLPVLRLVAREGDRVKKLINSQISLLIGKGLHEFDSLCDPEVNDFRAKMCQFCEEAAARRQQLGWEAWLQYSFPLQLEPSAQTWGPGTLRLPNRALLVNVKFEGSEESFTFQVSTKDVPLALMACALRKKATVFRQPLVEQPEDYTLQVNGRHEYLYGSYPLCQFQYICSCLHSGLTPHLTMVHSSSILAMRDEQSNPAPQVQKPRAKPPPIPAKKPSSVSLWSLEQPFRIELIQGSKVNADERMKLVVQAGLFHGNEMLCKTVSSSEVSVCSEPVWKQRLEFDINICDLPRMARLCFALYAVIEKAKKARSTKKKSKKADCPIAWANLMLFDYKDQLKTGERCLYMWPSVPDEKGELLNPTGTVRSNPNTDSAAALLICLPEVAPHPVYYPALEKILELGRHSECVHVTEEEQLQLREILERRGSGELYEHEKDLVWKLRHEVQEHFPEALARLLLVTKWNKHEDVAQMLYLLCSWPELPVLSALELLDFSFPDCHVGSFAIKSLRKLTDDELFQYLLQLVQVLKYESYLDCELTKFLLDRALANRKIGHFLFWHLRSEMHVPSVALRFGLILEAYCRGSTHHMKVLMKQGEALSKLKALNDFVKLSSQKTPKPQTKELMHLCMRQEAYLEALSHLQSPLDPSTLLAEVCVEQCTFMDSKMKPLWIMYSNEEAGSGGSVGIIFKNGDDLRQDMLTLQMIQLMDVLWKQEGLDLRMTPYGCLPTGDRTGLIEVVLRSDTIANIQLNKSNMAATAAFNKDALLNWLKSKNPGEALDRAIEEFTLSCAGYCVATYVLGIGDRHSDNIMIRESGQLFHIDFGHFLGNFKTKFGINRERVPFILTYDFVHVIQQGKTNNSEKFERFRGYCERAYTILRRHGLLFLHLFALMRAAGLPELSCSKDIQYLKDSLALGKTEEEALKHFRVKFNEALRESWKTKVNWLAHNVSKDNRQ
T1 sequence (P27986 whole entry partner): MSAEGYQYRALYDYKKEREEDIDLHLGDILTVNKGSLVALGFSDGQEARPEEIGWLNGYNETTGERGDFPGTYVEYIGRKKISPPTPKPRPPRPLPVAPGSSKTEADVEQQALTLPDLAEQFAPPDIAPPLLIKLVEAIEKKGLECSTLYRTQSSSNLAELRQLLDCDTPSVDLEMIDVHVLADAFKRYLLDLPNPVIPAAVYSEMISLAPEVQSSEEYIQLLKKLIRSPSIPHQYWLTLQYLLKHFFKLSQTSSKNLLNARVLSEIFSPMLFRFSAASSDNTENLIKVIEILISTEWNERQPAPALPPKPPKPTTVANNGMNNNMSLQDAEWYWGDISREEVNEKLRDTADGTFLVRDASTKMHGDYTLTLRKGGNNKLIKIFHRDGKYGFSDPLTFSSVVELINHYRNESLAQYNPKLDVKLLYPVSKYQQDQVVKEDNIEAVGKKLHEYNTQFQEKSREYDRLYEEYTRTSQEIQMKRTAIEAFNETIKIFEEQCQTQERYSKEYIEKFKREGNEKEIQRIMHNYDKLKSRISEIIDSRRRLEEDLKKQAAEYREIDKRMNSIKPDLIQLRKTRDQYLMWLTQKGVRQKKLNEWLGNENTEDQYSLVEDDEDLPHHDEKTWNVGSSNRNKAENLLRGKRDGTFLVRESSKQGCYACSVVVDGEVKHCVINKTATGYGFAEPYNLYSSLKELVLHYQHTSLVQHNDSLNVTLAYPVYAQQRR
Procedure, shortened: (§1)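 Jurkat cell lysate (5 mg/mL protein) incubated 2 h in the cold with test compound (9-step 1:3 series) and immobilized phenylthiazole/phenylmorpholin-chromen ligand beads. Bead-bound kinases eluted, detected by specific antibody dot blot with infrared readout; IC50 from dose-response curves.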

PI3Kα = target: T2, PI3Kα (Homo sapiens, UniProt P42336); test: kinobeads assay, PI3K alpha (dot blot detection); type: binding; details: Table 4, read-out: Inhibition values (IC50) PI3Ka
T2 construct: endogenous in cells; host or cells: Jurkat cells (ATCC TIB-152) lysate, the only lysate described
T2 sequence (P42336 whole entry): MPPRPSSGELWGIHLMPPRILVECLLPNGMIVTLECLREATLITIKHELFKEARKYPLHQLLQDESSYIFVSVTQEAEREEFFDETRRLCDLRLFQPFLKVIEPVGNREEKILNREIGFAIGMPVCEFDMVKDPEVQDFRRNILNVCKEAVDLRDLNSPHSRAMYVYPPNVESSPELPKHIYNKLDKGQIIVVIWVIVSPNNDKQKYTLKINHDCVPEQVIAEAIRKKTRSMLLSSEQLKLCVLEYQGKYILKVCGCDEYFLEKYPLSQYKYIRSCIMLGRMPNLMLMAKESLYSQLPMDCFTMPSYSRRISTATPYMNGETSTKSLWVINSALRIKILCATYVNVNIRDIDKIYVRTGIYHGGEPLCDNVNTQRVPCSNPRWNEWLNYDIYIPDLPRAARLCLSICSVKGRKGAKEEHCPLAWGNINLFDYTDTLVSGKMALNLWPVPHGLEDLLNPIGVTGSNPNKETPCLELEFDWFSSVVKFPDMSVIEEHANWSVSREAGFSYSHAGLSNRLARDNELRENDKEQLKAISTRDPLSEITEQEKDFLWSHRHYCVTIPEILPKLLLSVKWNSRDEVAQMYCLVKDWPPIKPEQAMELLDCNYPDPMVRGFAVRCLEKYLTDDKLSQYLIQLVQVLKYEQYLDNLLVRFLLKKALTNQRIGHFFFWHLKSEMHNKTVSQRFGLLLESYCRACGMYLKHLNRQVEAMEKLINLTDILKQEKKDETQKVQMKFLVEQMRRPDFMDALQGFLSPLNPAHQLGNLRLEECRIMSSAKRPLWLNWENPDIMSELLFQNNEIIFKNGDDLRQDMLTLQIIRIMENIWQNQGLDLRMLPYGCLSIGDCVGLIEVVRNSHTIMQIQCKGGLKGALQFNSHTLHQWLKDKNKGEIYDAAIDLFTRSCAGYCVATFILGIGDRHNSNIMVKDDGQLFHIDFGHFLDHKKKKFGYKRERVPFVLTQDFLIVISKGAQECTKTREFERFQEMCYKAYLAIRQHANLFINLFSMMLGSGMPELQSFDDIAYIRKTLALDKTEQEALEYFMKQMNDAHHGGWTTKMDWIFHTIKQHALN
T2 sequence (P27986 whole entry partner): as the sequence (P27986 whole entry partner) above

[1] = target: T3, DNA-dependent protein kinase (DNA-PK) (Homo sapiens, UniProt P78527); test: kinobeads assay, DNA-PK (dot blot detection); type: binding
T3 construct: endogenous in cells; host or cells: Jurkat cells (ATCC TIB-152, clone E6-1), lysate
Procedure, shortened: as §1

[2] = test system: S6RP serine-240/244 phosphorylation in HEK293T/17 cells; test: In vitro phospho-S6 cellular assay (pS6RP S240/244); type: cell-based; details: Homo sapiens, Table 6, 2 hours, S6RP Ser240/244, read-out: pS6 (phospho-S6 cell assay data, activity level)
Procedure, shortened: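 HEK293T/17 cells in DMEM with 2% FCS treated with 8 compound concentrations (0.1% DMSO) for 2 h at 37 °C, then lysed. Phospho-S6RP Ser240/244 or phospho-Akt Ser473 quantified by MesoScale sandwich immunoassay with Sulfo-Tag detection; IC50 from variable-slope sigmoidal fit.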

PI3Kβ = target: T4, PI3Kβ (Homo sapiens, UniProt P42338); test: kinobeads assay, PI3K beta (dot blot detection); type: binding; details: Table 4, read-out: Inhibition values (IC50) PI3Kb
T4 construct: endogenous in cells; host or cells: Jurkat cells (ATCC TIB-152) lysate, the only lysate described
T4 sequence (P42338 whole entry): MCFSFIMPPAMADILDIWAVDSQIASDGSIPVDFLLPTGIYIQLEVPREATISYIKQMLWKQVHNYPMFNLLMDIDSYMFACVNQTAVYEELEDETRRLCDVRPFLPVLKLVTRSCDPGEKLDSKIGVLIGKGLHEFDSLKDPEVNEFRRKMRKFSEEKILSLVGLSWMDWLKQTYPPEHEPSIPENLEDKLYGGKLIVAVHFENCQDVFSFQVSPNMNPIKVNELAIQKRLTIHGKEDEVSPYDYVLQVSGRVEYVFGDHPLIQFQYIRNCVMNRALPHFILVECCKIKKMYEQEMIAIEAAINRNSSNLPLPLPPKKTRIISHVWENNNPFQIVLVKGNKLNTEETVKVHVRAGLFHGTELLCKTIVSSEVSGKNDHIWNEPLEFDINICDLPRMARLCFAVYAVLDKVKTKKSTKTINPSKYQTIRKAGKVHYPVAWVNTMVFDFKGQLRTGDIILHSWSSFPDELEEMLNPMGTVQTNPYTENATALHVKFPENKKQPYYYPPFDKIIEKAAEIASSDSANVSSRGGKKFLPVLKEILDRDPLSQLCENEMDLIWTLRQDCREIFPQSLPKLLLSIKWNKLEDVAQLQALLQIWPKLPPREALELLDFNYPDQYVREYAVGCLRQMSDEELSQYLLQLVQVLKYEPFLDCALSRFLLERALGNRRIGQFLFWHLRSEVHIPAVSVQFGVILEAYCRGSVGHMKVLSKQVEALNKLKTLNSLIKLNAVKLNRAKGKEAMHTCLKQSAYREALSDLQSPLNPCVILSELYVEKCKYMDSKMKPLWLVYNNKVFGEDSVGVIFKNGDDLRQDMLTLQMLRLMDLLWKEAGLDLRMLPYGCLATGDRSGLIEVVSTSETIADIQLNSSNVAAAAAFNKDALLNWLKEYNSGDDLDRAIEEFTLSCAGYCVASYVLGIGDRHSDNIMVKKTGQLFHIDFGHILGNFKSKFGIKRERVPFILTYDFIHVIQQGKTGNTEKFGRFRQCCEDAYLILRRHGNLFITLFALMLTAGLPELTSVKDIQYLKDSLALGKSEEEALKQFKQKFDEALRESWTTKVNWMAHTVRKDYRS
T4 sequence (P27986 whole entry partner): as the sequence (P27986 whole entry partner) above

mTOR = target: T5, mTOR (Homo sapiens, UniProt P42345); test: mTOR kinobeads assay (dot blot detection); type: binding
T5 construct: endogenous in cells; host or cells: Jurkat cells (ATCC TIB-152, clone E6-1), lysate
Procedure, shortened: as §1

PI3Kγ = target: T6, PI3Kγ (Homo sapiens, UniProt P48736); test: kinobeads assay, PI3K gamma (dot blot detection); type: binding; details: Table 4, read-out: Inhibition values (IC50) PI3Kg
T6 construct: endogenous in cells; host or cells: Jurkat cells (ATCC TIB-152) lysate, the only lysate described
T6 sequence (P48736 whole entry): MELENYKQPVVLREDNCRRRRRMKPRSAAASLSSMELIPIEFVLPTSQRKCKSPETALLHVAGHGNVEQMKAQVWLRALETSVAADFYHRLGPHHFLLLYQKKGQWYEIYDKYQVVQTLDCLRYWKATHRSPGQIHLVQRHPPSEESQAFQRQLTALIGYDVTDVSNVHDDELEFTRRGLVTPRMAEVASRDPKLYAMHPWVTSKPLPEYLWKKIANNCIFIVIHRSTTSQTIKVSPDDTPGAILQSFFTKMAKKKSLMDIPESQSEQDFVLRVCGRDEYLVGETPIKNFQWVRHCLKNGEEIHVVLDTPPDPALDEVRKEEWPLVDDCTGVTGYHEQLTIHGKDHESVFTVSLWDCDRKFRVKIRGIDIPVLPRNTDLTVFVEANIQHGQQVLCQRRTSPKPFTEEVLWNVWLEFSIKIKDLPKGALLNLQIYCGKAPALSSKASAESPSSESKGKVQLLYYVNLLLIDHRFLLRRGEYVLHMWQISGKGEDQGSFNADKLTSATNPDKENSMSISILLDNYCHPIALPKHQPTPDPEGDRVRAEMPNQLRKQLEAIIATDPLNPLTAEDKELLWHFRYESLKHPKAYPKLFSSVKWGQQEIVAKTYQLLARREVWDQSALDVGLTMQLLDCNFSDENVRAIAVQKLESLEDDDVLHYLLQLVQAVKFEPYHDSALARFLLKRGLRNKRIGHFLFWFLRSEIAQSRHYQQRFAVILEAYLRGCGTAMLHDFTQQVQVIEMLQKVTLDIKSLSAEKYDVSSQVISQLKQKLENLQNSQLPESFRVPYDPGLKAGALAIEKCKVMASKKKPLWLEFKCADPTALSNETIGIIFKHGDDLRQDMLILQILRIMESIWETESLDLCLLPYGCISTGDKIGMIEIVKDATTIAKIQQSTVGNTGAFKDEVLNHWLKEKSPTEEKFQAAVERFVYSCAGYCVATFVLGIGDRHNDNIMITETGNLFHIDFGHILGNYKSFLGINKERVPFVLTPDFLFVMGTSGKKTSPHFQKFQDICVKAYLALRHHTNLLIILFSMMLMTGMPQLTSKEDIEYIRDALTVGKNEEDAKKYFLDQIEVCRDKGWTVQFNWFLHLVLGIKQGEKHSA

[3] = test system: Akt serine-473 phosphorylation in HEK293T/17 cells; test: In vitro phospho-Akt cellular assay (pAkt S473); type: cell-based; details: Homo sapiens, Table 6, 2 hours, Akt Ser473, read-out: pAKT (Phospho-Akt cell assay data, activity level)
Text: In Vitro Phospho-S6 and Phospho-Akt Cellular Assay
Activation of mTOR signaling results in phosphorylation of several downstream targets. In cells, mTOR exists in two different protein complexes. The mTOR Complex-1 (mTORC1) phosphorylates and activates S6 Kinase 1 (S6K1) and S6 Kinase 2 (S6K2) (also known as p70S6K) which then phosphorylate S6 Ribosomal Protein (S6RP) (also known as RPS6). S6RP is phosphorylated on serine 235, serine 236, serine 240 and serine 244 by both pS6K1 and pS6K2. The mTOR Complex-2 (mTORC2) phosphorylates AKT on serine 473 which activates the AKT signaling pathway.
The assay measures a test compound's inhibition of S6RP serine-240/244 phosphorylation and inhibition of Akt serine-473 phosphorylation in human embryonic kidney derived HEK293T/17 cells (ATCC CRL-11268).
The HEK293T/17 cell line is maintained in DMEM media (Invitrogen catalogue number 41965-039) supplemented with 10% FCS at 37° C. in a 5% CO2 humidified incubator.
Cells are seeded in 96-well plates at 40,000 cells/well (pS6RP S240/244 assay) or 80,000 cells/well (pAkt 5473 assay) in 90 μl growth media (DMEM, 2% FCS). Plates are incubated for 1 hour in a humidified incubator to allow the cells to adhere. Cells are treated with 8 concentrations of test compounds or DMSO alone for controls (final DMSO concentration 0.1%) and incubated at 37° C. for 2 hours. Then 20 μl of 5× concentrated lysis buffer (750 mM NaCl, 100 mM Tris pH7.4, 5 mM EDTA, 5 mM EGTA, 5% Triton X-100) is added, plates are sealed and incubated for 15 minutes at 4° C. with gentle shaking. After cell lysis, 25 μl cell lysate is transferred to a MesoScale plate coated with an antibody to pS6RP Ser240/244 (MesoScale Discovery K150DGD-3) or an antibody to pAkt Ser 473 (MesoScale Discovery K151DGD-3). Plates have been blocked before by incubation with 150 μl MesoScale Discovery Blocking Solution-A for 1 hour at room temperature followed by washing with 150 μl 1× Tris wash buffer per well. After the transfer of the cell lysate to the MSD plate, the pS6RP (or pAkt) protein is captured on the coated antibody by incubation at room temperature for 1 hour with gentle shaking. After the capture step the plate is washed three times with 150 μl of 1× Tris wash buffer per well. Then 25 μl detection antibody conjugated with a Sulfo-Tag is added and incubated for 1 hour at room temperature with gentle shaking. Subsequently the antibody solution is removed and the plate is washed 3 times with 150 μl 1× Tris wash buffer per well and 150 μl Read buffer is added. The plates are analysed on a MSD 2400 Plate Reader (MesoScale Discovery). Data analysis is performed using nonlinear regression for a sigmoidal dose-response with a variable slope.

[4] = Table 4, read-out: Inhibition values (IC50) PI3Kd
[5] = Table 4, read-out: Inhibition values (IC50) DNAPK
[6] = Table 4, read-out: Inhibition values (IC50) mTOR

pIC50 (PI3K delta (PI3Kd); [4])	pIC50 (PI3Kα)	pIC50 [1, 5]	pIC50 (PI3Kβ)	pIC50 (mTOR; [6])	pIC50 (PI3Kγ)	pIC50 (PI3K delta (PI3Kd); Table 2, Jurkat cell lysate, read-out: Inhibition values (IC50) PI3Kd)	pIC50 ([1]; Table 2, Jurkat cell lysate, read-out: Inhibition values (IC50) DNAPK)	pIC50 (mTOR; Table 2, Jurkat cell lysate, read-out: Inhibition values (IC50) mTor)	SMILES	pIC50 [2]	pIC50 [3]
≤ 5.00	≤ 5.00	≤ 5.00	≤ 5.00	6.00 to 7.00	≤ 5.00	–	–	–	C[C@@H](CO)NC(=O)Nc1ccc(-c2cc(-c3cc(F)ccc3S(C)(=O)=O)nc(N3CCOC[C@@H]3C)n2)cc1 [Example 74, 1-(4-(6-(5-fluoro-2-(methylsulfonyl)phenyl)-2-((S)-3-methylmorpholino)pyrimidin-4-yl)phenyl)-3-((S)-1-hydroxypropan-2-yl)urea]	> 7.00	> 7.00
≤ 5.00	≤ 5.00	≤ 5.00	≤ 5.00	> 7.00	≤ 5.00	–	–	–	C[C@H]1COCCN1c1cc(-c2cc(F)ccc2S(C)(=O)=O)nc(-c2ccc(NC(=O)NCCO)cc2)n1 [Example 78, (S)-1-(4-(4-(5-fluoro-2-(methylsulfonyl)phenyl)-6-(3-methylmorpholino)pyrimidin-2-yl)phenyl)-3-(2-hydroxyethyl)urea]	> 7.00	> 7.00
≤ 5.00	≤ 5.00	≤ 5.00	≤ 5.00	6.00 to 7.00	≤ 5.00	–	–	–	C[C@H]1COCCN1c1cc(-c2cc(F)ccc2S(C)(=O)=O)nc(-c2ccc(NC(=O)NC3CC3)cc2)n1 [Example 77, (S)-1-cyclopropyl-3-(4-(4-(5-fluoro-2-(methylsulfonyl)phenyl)-6-(3-methylmorpholino)pyrimidin-2-yl)phenyl)urea]	> 7.00	> 7.00
≤ 5.00	≤ 5.00	≤ 5.00	≤ 5.00	5.00 to 6.00	≤ 5.00	≤ 5.00	≤ 5.00	5.00 to 6.00	C[C@H]1COCCN1c1cc(-c2cc(F)ccc2S(C)(=O)=O)nc(-c2ccc(NC(=O)NC3CC3)cc2F)n1 [Example 66, (S)-1-cyclopropyl-3-(3-fluoro-4-(4-(5-fluoro-2-(methylsulfonyl)phenyl)-6-(3-methylmorpholino)pyrimidin-2-yl)phenyl)urea]	6.00 to 7.00	–
